The source of these data is patent US6465441B2, “Screening method for modulation of human mast cell activation” (Duska Scientific Co., priority 1997, dated 2002).

Series [1] has as its system human lung mast cells (HLMC). Nature of the series: Histamine release assay, anti-IgE-induced histamine release from purified human lung mast cells. Format: cell-based. The protocol:
(§1) Lung fragments were washed with Tyrode's buffer containing (g/l): NaCl, 8.0; KCl, 0.2; NaH2PO4, 0.05; and glucose, 1.0. The buffer was titrated to pH 7.2 by the addition of NaHCO3. Mast cell isolation and elutriation were performed in a buffer designated “TGMD”, prepared from Tyrode's buffer to which the following were added (g/l): gelatin (1.0), magnesium (0.25; 1 mM), and DNase (0.01). The buffer designated “PAGCM” was a Pipes-albumin (0.003%) buffer containing (g/l): glucose (1.0), CaCl2.2H2O, 0.14 (1 mM); and MgCl2.6H2O, 0.2 (1 mM).
(§2) Mast cells were dispersed from human lung by methods previously reported (Schulman et al., J. Immunol. 29:2662-2667 (1982); Schulman et al., J. Immunol. 131:1936-1941 (1983)). Briefly, lung specimens obtained at thoracotomy for bronchogenic carcinoma were finely minced and extensively washed in divalent cation-free Tyrode's buffer. Fragments were briefly incubated in a mixture of pronase (2 mg/ml) and chymopapain (0.5 mg/ml). Freed cells were harvested through Nytex nylon cloth (150 microns pore size). Residual fragments were further exposed to a mixture of collagenase (1 mg/ml) and elastase (10 units/ml). All incubations and washes were performed at 37° C.; recovered cells were immediately washed three times in large volumes of TGMD. Mast cell purities in these human lung cell suspensions ranged from 1-8% as determined by alcian blue staining (Gilbert et al., Blood 46:279-285 (1975)). Lung mast cells were further purified, by counter-current elutriation, using previously reported methods (Schulman et al., J. Immunol. 131:1936-1941 (1983)). Mast cells were purified (80->98%) by flotation of enriched elutriation fractions through a discontinuous Percoll gradient (Ishizaka et al., J. Immunol. 130:2357-2362 (1983)). Further mast cell purification was accomplished by immunomagnetic negative selection against CD2, CD3, CD4, CD8, CD14, CD16, CD21 and HLADR to ensure against contamination by T cells, B calls, NK cells, monocytes, and dendritic cells prior to mast cell stimulation using previously described methods (Jaffe et al., Am. J. Respir. Cell. Mol. Biol. 13:665-675 (1995); Jaffe et al., Am. J. Respir. Cell. Mol. Biol. 15:473-481 (1996)).
The concentrations of anti-IgE produce 30-70% of maximal release. Twenty minutes following activation, cells were rapidly pelleted and supernatants removed for histamine analysis. Histamine release was expressed as the net histamine released divided by the total histamine content×100%. The total cellular histamine content was determined following cell lysis with 2% perchloric acid. Spontaneous histamine release was always <2% of cellular histamine and generally <1%. Histamine measurements were performed using the automated spectrofluorometric method of Technicon (Tarrytown, N.Y.). Variations between replicates were consistently <5%. All assays were run in duplicates.

Series [2] deals with human P2Y1 receptor (Homo sapiens, UniProt P47900). To be noted: cited from earlier work.
Sequence of human P2Y1 receptor (P47900 whole entry): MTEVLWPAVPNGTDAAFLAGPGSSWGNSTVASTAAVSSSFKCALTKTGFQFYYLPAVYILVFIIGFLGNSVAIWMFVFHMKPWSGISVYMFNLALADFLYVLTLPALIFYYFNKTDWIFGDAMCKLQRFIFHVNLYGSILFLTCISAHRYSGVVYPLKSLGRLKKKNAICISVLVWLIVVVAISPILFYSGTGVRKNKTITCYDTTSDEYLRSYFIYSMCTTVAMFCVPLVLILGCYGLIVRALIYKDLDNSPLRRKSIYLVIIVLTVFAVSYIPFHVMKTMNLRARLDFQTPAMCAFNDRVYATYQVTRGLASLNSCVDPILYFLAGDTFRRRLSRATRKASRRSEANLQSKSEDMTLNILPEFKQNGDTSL
Series [3] concerns rat peritoneal mast cells. The conditions noted are these: cited from earlier work.
The test system of series [4] is human lung mast cells (HLMC). The experiment in a line: Direct induction of histamine release from HLMC without anti-IgE. Format: cell-based. The conditions noted are these: for direct induction of histamine release: no anti-IgE. As for the experimental part: as §1
as §2, with “Further mast cell purification was accomplished by immunomagnetic negative selection against CD2, CD3, CD4, CD8, CD14, CD16, CD21 and HLADR to ensure against contamination by T cells, B calls, NK cells, monocytes, and dendritic cells prior to mast cell stimulation using previously described methods (Jaffe et al., Am. J. Respir. Cell. Mol. Biol. 13:665-675 (1995); Jaffe et al., Am. J. Respir. Cell. Mol. Biol. 15:473-481 (1996)).” left out
The concentrations of anti-IgE produce 30-70% of maximal release. […] Histamine release was expressed as the net histamine released divided by the total histamine content×100%. The total cellular histamine content was determined following cell lysis with 2% perchloric acid. […]

Series [5] concerns HLMC. Nature of the series: Functional ectoATPase assay of HLMC (HPLC detection of purine compounds). To be noted: 10^−4M ATP, anti-IgE activated HLMC, 15 + 20 min incubation, n=3. Format: in vitro ADME, human. The protocol:
The supernatants were separated from the cells by centrifugation at 14,000-×g for 5 minutes and kept at −20° C. until analyzed by HPLC. The method of Stocci et al., Anal. Biochem. 167:181-90 (1987) was used for the detection of the purine compounds. The HPLC system consisted of Waters 600E controller, Waters Novapak 4 μm 3.9×150 mm C18 column, and a 990 photodiode array detector. The solvent consisted of 0.1 mM KH2PO4, 8 mM tetrabutylammonium hydrogen sulfate (TAHS) pH 6.0 (buffer A), and 0.1 mM KH2PO4, 8 mM TAHS pH 6.0 with 30% (v/v) methanol (buffer B). The flow rate was 1 ml/min. with the following gradient program: 100% A to 2.5 min., linear gradient to 20% B at 5 min, to 40% B at 10 min., to 100% at 13 min., then 100% B to 30 min. 100 μl of supernatant (neat) was injected and the separation monitored at 254 nm over the 30 minute run time. The ATP peak areas were calculated and compared among the conditions. […] The data are the result of three experiments.

[6] abbreviates: Example 3, control 9.9±3.1%, n=10.
Setting [7] is: Example 4, 10^−4M (equimolar), control 14.9±3.9%, six experiments, p<0.05.
Setting [8] is: Example 5, 10^−4M, control 10.3±3.0%, n=6.
Setting [9] is: Example 5, 10^−5M, control 10.3±3.0%, n=6.
The mark [10] stands for this setting: Example 3, control 9.9±3.1%, ten experiments.

In the case of `CSc1nc(N)c2ncn([C@@H]3O[C@H](COP(=O)(O)OP(=O)(O)OP(=O)(O)O)[C@@H](O)[C@H]3O)c2n1` [2-mSATP, 2methylthio-ATP], the anti-IgE-induced histamine release in series [1] (setting [6]) came to 14.3±3.9%.

In the case of `Nc1ncnc2c1ncn2[C@@H]1O[C@H](COP(=O)(O)O)[C@@H](O)[C@H]1OP(=O)(O)O` [A2P5P, adenosine-2′-phosphate-5′-phosphate], the “agonist activity at the human P2Y1 receptor” value (“agonist activity” for short) in series [2] is given as “Partial agonists”.

Regarding `Nc1ncnc2c1ncn2[C@@H]1O[C@H](COP(=O)(O)O)[C@@H](OP(=O)(O)O)[C@H]1O` [A3P5P, adenosine-3′-phosphate-5′-phosphate], in series [2], the “agonist activity” value is given as “devoid of agonist activity”.

As for `Nc1ncnc2c1ncn2[C@@H]1O[C@H](COP(=O)(O)OS(=O)(=O)O)[C@@H](OP(=O)(O)O)[C@H]1O` [A3P5PS, adenosine-3′-phosphate-5′-phosphosulfate], the “agonist activity” value in series [2] is recorded as “devoid of agonist activity”.

For the compound `Nc1ncnc2c1ncn2[C@@H]1O[C@H](COP(=O)(O)OP(=O)(O)OP(=O)(O)O)[C@@H](O)[C@H]1O` [ATP, adenosine 5′-triphosphate], the anti-IgE-induced histamine release in series [1] (10^−3M, n=9, control 10.1+3.4%, not statistically significant (p>0.05)) is reported as 14.0+2.4%; in series [1] (10^−4M, high responders, control 24.2±4.2%, n=7) it was 32.9±4.5%; in series [1] (10^−4M, low responders (<3%), control 1.8±0.4%, n=6), 13.5±2.7%; in series [1] (ATP 10^−4M, 20 anti-IgE-responsive preparations, control 10.9+2.7%, p<0.01), 19.2+2.9%; in series [1] (setting [6]), 17.7±4.1%; in series [1] (setting [7]), 23.0±4.7%. Besides, the anti-IgE-induced histamine release entry is recorded as “significantly enhanced” in series [1] (setting [8]); “significantly enhanced” in series [1] (setting [9]); 15.7±7.1% in series [1] (Example 9, ATP 10^4−M, control 11.2±5.3%, four experiments). Moreover, the “effect on anti-IgE-induced histamine release” value in series [1] (10^−4M, 9 of 9 experiments, control 10.1+3.4%, p<0.05) is “enhanced histamine release”; in series [1] (10^−5M, 9 of 9 experiments, control 10.1+3.4%, p<0.05) it was “enhanced histamine release”; in series [1] (10^−6M, six preparations), “no effects”. Moreover, the “percent enhancement of anti-IgE-induced histamine release” value in series [1] (10^−4M, high responders, n=7) was determined as 35%; in series [1] (10^−4M, low responders, n=6), 750%. For the same compound, the “enhancement of anti-IgE-induced histamine release (absolute)” value in series [1] (10^−4M, lowest and highest anti-IgE responsive preparations) is recorded as 8-10%. Moreover, the “effect in preparations that failed to respond to anti-IgE alone” value in series [1] (preincubation 10^−6-10^−3M, 3/23 preparations) is reported as “without effect”. The “concentration of maximum mediator secretion” value in series [3] (depressed by Ca^2+ and Mg^2+) is 2 µM. Also, the “concentration that inhibits mediator release” value in series [3] (in the presence of millimolar Ca^2+) is recorded as “above 3 μM”. Further, the “direct induction of histamine release” value in series [4] (ATP 10^−7M-10^−3M, n=23) is “did not directly induce histamine release”. In addition, in series [4] (Ca^2+-free and Mg^2+-free media, results not shown), the “histamine release on ATP challenge” value is reported as “failed to provoke histamine release”. The “area under the ATP peak vs control (ATP alone without HLMC)” value in series [5] is “no noticeable decrease”.

Take `Cc1nc(N=Nc2ccc(S(=O)(=O)O)cc2S(=O)(=O)O)c(COP(=O)(O)O)c(C=O)c1O` [PPADS, pyridzalphosphate-6-azophenyl-2′,4′-disulfonic acid]: the “anti-IgE-induced histamine release with ATP after preincubation with antagonist” value in series [1] (Example 9, ATP alone 15.7±7.1%, no significant modulation) is 16.1±5.9%.

Consider `Nc1ncnc2c1ncn2[C@@H]1O[C@H](CO)[C@@H](O)[C@H]1O` [adenosine], for which the anti-IgE-induced histamine release in series [1] (Example 5, 10^−3 M, control 10.3±3.0%, n=6, p<0.05) amounted to 5.3±1.9%; in series [1] (setting [8]) it was 11.2±4.7%; in series [1] (setting [9]), 13.4±5.6%. Besides, the “direct induction of histamine release” value in series [4] (adenosine alone) is “did not directly induce histamine release”.

For the compound `Nc1ncnc2c1ncn2[C@@H]1O[C@H](COP(=O)(O)CP(=O)(O)OP(=O)(O)O)[C@@H](O)[C@H]1O` [α,βmATP, α,βmethylene-ATP], the “effect on anti-IgE-induced histamine release” value in series [1] (setting [10]) was “enhanced”. In series [3], the “induction of mediator release” value is “inactive”.

Turning to `Nc1ncnc2c1ncn2[C@@H]1O[C@H](COP(=O)(O)OP(=O)(O)CP(=O)(O)O)[C@@H](O)[C@H]1O` [β,γmATP, β,γmethylene-ATP], in series [1] (setting [10]), the “effect on anti-IgE-induced histamine release” value was “enhanced”. The “induction of mediator release” value in series [3] was “inactive”.

Take adenosine-2′-phosphate-5′-phosphoribose: the “agonist activity” value in series [2] is “Partial agonists”.

uracil triphosphate [UTP]: the anti-IgE-induced histamine release in series [1] (setting [7]) is 19.2±5.0%. Further, in series [3] (10^−4M), the “achieving mediator release in comparison with ATP” value was “almost inactive”.
